Measured values as given in patent publication US7115642B2, “Substituted diphenyl isoxazoles, pyrazoles and oxadiazoles useful for treating HCV infection” (priority 2003, dated 2006).

Tests used:
[1] = system: HCV replicon (5-2 Luc replicon-comprising cells); assay: HCV replicon assay (luciferase); assay type: cell-based, Hepatitis C virus; conditions: Hepatitis C virus; 5-2 Luc replicon cells, luciferase readout; read-out: Replicon IC50
Summary of the method: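 Readout: IC50 from a 50% drop in luciferase signal (Bright-Glo, luminometer), scored + (≤10 μM) or − (>10 μM). Compounds added at various concentrations to 5-2 Luc replicon cells (Huh7 background), pre-incubated 24 h, then incubated 24 h more before reading.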

[2] = Cytotoxicity assay (Cell Titer Glo); assay type: cell-based; conditions: human; 48 hr with compound, ATP-dependent Cell Titer Glo assay; read-out: IC50 in cytotoxicity assay (number of viable cells)
Description: Compounds 67, 167, 169, 13, 1, 145, 29, 119, 63, 31, 39, 103, 123, 121, 97, 129, 79, 111, 85, 89, 109, 127, 131, 95, 47, 57, 69, 165, 161, 163, 3, 137, 15, 141, 41, 53, 33, 113, 93, 105, 77, 91, 81, 83, 35, 27, 65, 7, 135, 51, 139, 51, 49, 143, 5, 149, 11, 37, 21, 45, 61, 75, 23, 125, 73, 43, 171 and 101 were tested in a cytotoxicity assay with liver cells including an HCV replicon (5-2 Luc cells, 9–13 cells or Huh-7 cells). In the assay, cells were seeded onto 96-well plates (approx. 7500 cells/well in a volume of 90 μl) and grown for 24 hr at 37° C. On day 2, various concentrations of test compound (in a volume of 10 μl) were added to the wells and the cells were grown for an additional 48 hr at 37° C. On day 4, an ATP-dependent R-Luciferase assay (Cell Titer Glo assay) was performed to determine the number of viable cells.

O=C(CCl)Nc1cccc(-c2cc(-c3c(Cl)cccc3Cl)no2)c1 [Compound 67, 2-Chloro-N-[3-[3-(2,6-dichlorophenyl)-5-isoxazolyl]phenyl]Acetamide]
IC50 [1]: < 10 µM | IC50 at 48 h [2]: > 5 µM

Cc1cc(C)c(-c2cc(-c3cccc(NC(=O)C(Cl)Cl)c3)on2)c(C)c1 [Compound 69, 2,2-Dichloro-N-[3-[3-(2,4,6-trimethylphenyl)-5-isoxazolyl]phenyl]Acetamide]
IC50 [1]: < 10 µM | IC50 at 48 h [2]: 3 µM

COc1cccc(C(F)(F)F)c1-c1cc(-c2cccc(NC(=O)C(Cl)Cl)c2)on1 [Compound 77, 2,2-Dichloro-N-[3-[3-(2-methoxy-6-trifluoromethylphenyl)-5-isoxazolyl]phenyl]Acetamide]
IC50 [1]: < 10 µM | IC50 at 48 h [2]: > 10 µM

O=C(Nc1cccc(-c2cc(-c3c(Cl)cccc3C3CC3)no2)c1)C(Cl)Cl [Compound 79, 2,2-Dichloro-N-[3-[3-(2-chloro-6-cyclopropylphenyl)-5-isoxazolyl]phenyl]Acetamide]
IC50 [1]: < 10 µM | IC50 at 48 h [2]: > 10 µM

COc1cccc(Cl)c1-c1cc(-c2cccc(NC(=O)C(Cl)Cl)c2)on1 [Compound 81, 2,2-Dichloro-N-[3-[3-(2-chloro-6-methoxyphenyl)-5-isoxazolyl]phenyl]Acetamide]
IC50 [1]: < 10 µM | IC50 at 48 h [2]: > 10 µM

O=C(Nc1cccc(-c2cc(-c3c(O)cccc3Cl)no2)c1)C(Cl)Cl [Compound 83, 2,2-Dichloro-N-[3-[3-(2-chloro-6-hydroxyphenyl)-5-isoxazolyl]phenyl]Acetamide]
IC50 [1]: < 10 µM | IC50 at 48 h [2]: > 10 µM

Cc1cccc(C(F)(F)F)c1-c1cc(-c2cccc(NC(=O)C(Cl)Cl)c2)on1 [Compound 85, 2,2-Dichloro-N-[3-[3-(2-methyl-6-trifluoromethylphenyl)-5-isoxazolyl]phenyl]Acetamide]
IC50 [1]: < 10 µM | IC50 at 48 h [2]: > 10 µM

O=C(Nc1cccc(-c2cc(-c3c(C4CC4)cccc3C(F)(F)F)no2)c1)C(Cl)Cl [Compound 89, 2,2-Dichloro-N-[3-[3-(2-cyclopropyl-6-trifluoromethylphenyl)-5-isoxazolyl]phenyl]Acetamide]
IC50 [1]: < 10 µM | IC50 at 48 h [2]: > 10 µM

COc1cccc(C)c1-c1cc(-c2cccc(NC(=O)C(Cl)Cl)c2)on1 [Compound 91, 2,2-Dichloro-N-[3-[3-(2-methoxy-6-methylphenyl)-5-isoxazolyl]phenyl]Acetamide]
IC50 [1]: < 10 µM | IC50 at 48 h [2]: > 10 µM

CC(C)c1cccc(C(F)(F)F)c1-c1cc(-c2cccc(NC(=O)C(Cl)Cl)c2)on1 [Compound 93, 2,2-Dichloro-N-[3-[3-(2-isopropyl-6-trifluoromethylphenyl)-5-isoxazolyl]phenyl]Acetamide]
IC50 [1]: < 10 µM | IC50 at 48 h [2]: > 10 µM

O=C(Nc1cccc(-c2cc(-c3c(Cl)cccc3C3CCCC3)no2)c1)C(Cl)Cl [Compound 97, 2,2-Dichloro-N-[3-[3-(2-chloro-6-cyclopentylphenyl)-5-isoxazolyl]phenyl]Acetamide]
IC50 [1]: < 10 µM | IC50 at 48 h [2]: > 10 µM

CCCCc1cccc(Cl)c1-c1cc(-c2cccc(NC(=O)C(Cl)Cl)c2)on1 [Compound 103, 2,2-Dichloro-N-[3-[3-(2-chloro-6-n-butylphenyl)-5-isoxazolyl]phenyl]Acetamide]
IC50 [1]: < 10 µM | IC50 at 48 h [2]: > 10 µM

O=C(Nc1cccc(-c2cc(-c3c(C4CCCC4)cccc3C(F)(F)F)no2)c1)C(Cl)Cl [Compound 105, 2,2-Dichloro-N-[3-[3-(2-cyclopentyl-6-trifluoromethylphenyl)-5-isoxazolyl]phenyl]Acetamide]
IC50 [1]: < 10 µM | IC50 at 48 h [2]: > 5 µM

CN1CCN(c2cccc(C(F)(F)F)c2-c2cc(-c3cccc(NC(=O)C(Cl)Cl)c3)on2)CC1 [Compound 109, 2,2-Dichloro-N-[3-[3-[2-trifluoromethyl-6-(4-methylpiperazino)phenyl]-5-isoxazolyl]-phenyl]Acetamide]
IC50 [1]: < 10 µM | IC50 at 48 h [2]: > 10 µM

O=C(Nc1cccc(-c2cc(-c3c(Cl)cccc3C3CCCCC3)no2)c1)C(Cl)Cl [Compound 111, 2,2-Dichloro-N-[3-[3-(2-chloro-6-cyclohexylphenyl)-5-isoxazolyl]phenyl]Acetamide]
IC50 [1]: < 10 µM | IC50 at 48 h [2]: > 10 µM

O=C(Nc1cccc(-c2cc(-c3ccccc3OC(F)(F)F)no2)c1)C(Cl)Cl [Compound 113, 2,2-Dichloro-N-[3-[3-(2-trifluoromethoxyphenyl)-5-isoxazolyl]phenyl]Acetamide]
IC50 [1]: < 10 µM | IC50 at 48 h [2]: > 10 µM

CC(C)Oc1ccccc1-c1cc(-c2cccc(NC(=O)C(Cl)Cl)c2)on1 [Compound 119, 2,2-Dichloro-N-[3-[3-(2-isopropyloxyphenyl)-5-isoxazolyl]phenyl]Acetamide]
IC50 [1]: < 10 µM | IC50 at 48 h [2]: > 10 µM

CC(C)c1cccc(C(C)C)c1-c1cc(-c2cccc(NC(=O)C(Cl)Cl)c2)on1 [Compound 121, 2,2-Dichloro-N-[3-[3-(2,6-diisopropylphenyl)-5-isoxazolyl]phenyl]Acetamide]
IC50 [1]: < 10 µM | IC50 at 48 h [2]: > 10 µM

COc1ccc(NC(=O)C(Cl)Cl)cc1-c1cc(-c2c(Cl)cccc2Cl)no1 [Compound 127, 2,2-Dichloro-N-[3-[3-(2,6-dichlorophenyl)-5-isoxazolyl]4-methoxyphenyl]Acetamide]
IC50 [1]: < 10 µM | IC50 at 48 h [2]: > 10 µM

O=C(Nc1cccc(-c2cc(-c3ccccc3C3CCCC3)no2)c1)C(Cl)Cl [Compound 129, 2,2-Dichloro-N-[3-[3-(2-cyclopentylphenyl)-5-isoxazolyl]phenyl]Acetamide]
IC50 [1]: < 10 µM | IC50 at 48 h [2]: > 10 µM

O=C(Nc1cccc(-c2cc(-c3c(Cl)ccc(Cl)c3Cl)no2)c1)C(Cl)Cl [Compound 137, 2,2-Dichloro-N-[3-[3-(2,3,6-trichlorophenyl)-5-isoxazolyl]phenyl]Acetamide]
IC50 [1]: > 10 µM | IC50 at 48 h [2]: > 10 µM

O=C(O)c1ccc(Cl)c(-c2cc(-c3cccc(NC(=O)C(Cl)Cl)c3)on2)c1Cl [Compound 139, 2,2-Dichloro-N-[3-[3-(3-carboxy-2,6-dichlorophenyl)-5-isoxazolyl]phenyl]Acetamide]
IC50 [1]: > 10 µM | IC50 at 48 h [2]: > 10 µM

O=C(Nc1cccc(-c2cc(-c3cc(C(F)(F)F)ccc3Cl)no2)c1)C(Cl)Cl [Compound 141, 2,2-Dichloro-N-[3-[3-(2-chloro-5-trifluoromethylphenyl)-5-isoxazolyl]phenyl]Acetamide]
IC50 [1]: > 10 µM | IC50 at 48 h [2]: > 10 µM

O=C(Nc1cccc(-c2cc(-c3c(Cl)cccc3Cl)no2)c1)C(F)F [Compound 145, 2,2-Difluoro-N-[3-[3-(2,6-dichlorophenyl)-5-isoxazolyl]phenyl]Acetamide]
IC50 [1]: > 10 µM | IC50 at 48 h [2]: > 10 µM

Cc1ccc(F)c(-c2cc(-c3cccc(NC(=O)C(Cl)Cl)c3)on2)c1F [Compound 149, 2,2-Dichloro-N-[3-[3-(2,6-difluoro-3-methylphenyl)-5-isoxazolyl]phenyl]Acetamide]
IC50 [1]: > 10 µM | IC50 at 48 h [2]: > 10 µM

O=C(Nc1cccc(-c2cc(-c3ccccc3OCc3ccccc3)no2)c1)C(Cl)Cl [Compound 161, 2,2-Dichloro-N-[3-[3-(2-benzyloxyphenyl)-5-isoxazolyl]phenyl]Acetamide]
IC50 [1]: > 10 µM | IC50 at 48 h [2]: > 10 µM

Cc1ccc(-c2cc(-c3c(Cl)cccc3Cl)no2)cc1NC(=O)C(Cl)Cl [Compound 165, 2,2-Dichloro-N-[3-[3-(2,6-dichlorophenyl)-5-isoxazolyl]-6-methylphenyl]Acetamide]
IC50 [1]: > 10 µM | IC50 at 48 h [2]: > 10 µM

Cc1c(NC(=O)C(Cl)Cl)cccc1-c1cc(-c2c(Cl)cccc2Cl)no1 [Compound 167, 2,2-Dichloro-N-[3-[3-(2,6-dichlorophenyl)-5-isoxazolyl]-2-methylphenyl]Acetamide]
IC50 [1]: > 10 µM | IC50 at 48 h [2]: > 10 µM
